{"source": "patent US9073916B2", "about": "“Prodrug forms of kinase inhibitors and their use in therapy” (AUCKLAND UNISERVICES LIMITED, priority 2009, dated 2015)", "key": {"[1]": {"assay": "Plasma and A431 tumour pharmacokinetics of compounds 11 and 20", "quoted_text": "A small piece (˜100 mg) of tissue was placed in biopulveriser well (previously cooled in liquid nitrogen) and reduced to fine powder with a 2-3 strong blows to the stainless steel pestle. The frozen powder was collected in pre-weighed microcentrifuge tube (kept on dry ice). […] The microcentrifuge tubes were spun at 13,000 rpm for 10 min to precipitate the cell debris and proteins. […] The analytes were eluted using a gradient of 0.01% formic acid in acetonitrile (80%)-water (20%) mixture and 0.01% formic acid in water (100%) on Zorbax SB 018, rapid resolution HT 3.0×50 mm, 1.8 micron (Agilent) HPLC column with a flow rate of 0.6 ml/min."}, "A431 xenografts": {"system": "A431 xenografts", "assay": "In vivo efficacy in A431 xenografts", "protocol": "(§1) Specific pathogen-free homozygous female CD-1 nude mice (Charles River Laboratories, Wilmington, Mass.) were inoculated subcutaneously with a single cell suspension of A431 cells (5×10^6 cells/100 pt; right flank). When A431 tumour xenografts were established (typically 6-10 days) mice were randomized to treatment groups. All compounds were prepared in lactate buffer (pH4). Mice were dosed by intraperitoneal injection (0.01-0.03 ml/g) using the stated schedules and dose levels. Tumour size and body weights were measured at regular intervals. Tumour volume was calculated as π (length×width^2)/6. […] Differences in RTV^4 were tested for statistical difference by Mann Whitney U test using SigmaStat v3.5."}, "erbB1": {"target": "erbB1 (Homo sapiens, UniProt P00533)", "sequence (P00533 25-1210)": "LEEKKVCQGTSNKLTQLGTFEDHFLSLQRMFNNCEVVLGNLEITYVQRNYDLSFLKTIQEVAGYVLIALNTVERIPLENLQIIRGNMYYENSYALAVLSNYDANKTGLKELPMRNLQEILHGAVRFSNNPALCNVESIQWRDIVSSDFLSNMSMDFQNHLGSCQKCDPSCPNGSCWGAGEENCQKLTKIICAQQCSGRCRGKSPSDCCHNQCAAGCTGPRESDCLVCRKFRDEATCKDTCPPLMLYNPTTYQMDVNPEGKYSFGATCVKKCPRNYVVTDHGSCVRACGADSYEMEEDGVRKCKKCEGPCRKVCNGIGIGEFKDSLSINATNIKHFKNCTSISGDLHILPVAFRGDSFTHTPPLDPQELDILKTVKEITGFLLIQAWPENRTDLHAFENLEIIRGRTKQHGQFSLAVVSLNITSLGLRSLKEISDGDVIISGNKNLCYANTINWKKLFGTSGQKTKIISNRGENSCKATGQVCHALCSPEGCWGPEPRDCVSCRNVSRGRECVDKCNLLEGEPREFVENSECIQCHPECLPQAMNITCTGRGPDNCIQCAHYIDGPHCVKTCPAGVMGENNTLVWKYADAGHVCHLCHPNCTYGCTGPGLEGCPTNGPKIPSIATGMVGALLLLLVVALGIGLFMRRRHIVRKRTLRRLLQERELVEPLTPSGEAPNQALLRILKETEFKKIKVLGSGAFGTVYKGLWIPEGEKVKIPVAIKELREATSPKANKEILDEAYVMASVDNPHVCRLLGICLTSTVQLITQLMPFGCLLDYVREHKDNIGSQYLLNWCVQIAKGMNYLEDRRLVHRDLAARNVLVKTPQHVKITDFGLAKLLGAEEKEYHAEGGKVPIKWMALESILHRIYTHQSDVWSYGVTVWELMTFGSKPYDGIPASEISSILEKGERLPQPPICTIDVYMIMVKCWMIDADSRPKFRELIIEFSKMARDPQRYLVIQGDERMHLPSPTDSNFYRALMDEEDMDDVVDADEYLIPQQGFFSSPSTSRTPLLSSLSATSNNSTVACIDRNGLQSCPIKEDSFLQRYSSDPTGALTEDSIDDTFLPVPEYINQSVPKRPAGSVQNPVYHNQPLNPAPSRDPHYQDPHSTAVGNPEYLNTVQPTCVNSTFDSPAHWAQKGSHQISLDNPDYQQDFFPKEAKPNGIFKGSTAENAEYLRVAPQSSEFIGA", "assay": "Inhibition of erbB1 autophosphorylation in EGF-stimulated intact A431 cells (Western blot)"}, "Solubility by HPLC": {"assay": "Solubility by HPLC", "conditions": "α-MEM cell culture medium"}, "SKOV3 xenografts": {"system": "SKOV3 xenografts", "assay": "In vivo efficacy in SKOV3 xenografts", "parameters": "species or system mice", "protocol": "as §1, with “NIH-III” for “CD-1”, “SKOV3” for “A431”, “(1×10^7” for “(5×10^6”, “μL;” for “pt;”, “50-65” for “6-10”\nas §1, with “NIH-III” for “CD-1”, “SKOV3” for “A431”, “(1×10^7” for “(5×10^6”, “μL;” for “pt;”, “50-65” for “6-10”, “Compounds 42 and 161” for “All compounds”"}, "[2]": {"assay": "Pulse radiolysis (E(1) and fragmentation rate)", "type": "physicochemical", "conditions": "for kfrag. (fragmentation rate constant upon 1-electron reduction): benzyl-type radical formation; for E (1)/V (one-electron reduction potential): determined against methylviologen"}, "A431 cells": {"system": "A431 cells", "assay": "Cellular growth inhibition (sulforhodamine B)", "quoted_text": "Human A431, BT474, SKBR3, SKOV3, SW620, H1975 and HT29 carcinoma cells in log phase exponential growth in alpha minimal essential media (αMEM) containing 5% fetal bovine serum (FBS), were harvested by trypsinisation (1× trypsin/EDTA, Gibco Brl), counted, and seeded into 96 well plates (Nunc) at cell densities ranging from 800-1500 cells/well. Half of the cell samples were seeded into plates that were pre-equilibrated and held in an anoxic environment (90% N2, 5% H2, 5% CO2, 37° Q Anaerobic chamber, Coy Laboratory Products). […] At the end of this period the anoxic plates were recovered from the anaerobic camber and held under normoxia in a standard CO2 incubator (37° C.) for 20 hours. All plates were washed free of compound and cells were allowed to proliferate for a further 4 days in αMEM containing 5% FBS+antibiotics. Cells were fixed in trichloroacteic acid (30 min), washed and stained with sulforhodamine B (SRB, 60 min) prior to washing in acidified water. SRB was solubilised and absorption read at 450 nm to calculate cell densities. Inhibition of proliferation was calculated relative to untreated control wells.\nHuman A431, H1975 and SKOV3 carcinoma cells in log phase exponential growth in alpha minimal essential media (αMEM) containing 5% fetal bovine serum (FBS), were harvested by trypsinisation (1× trypsin/EDTA, Gibco Brl), counted, and seeded into 96 well plates (Nunc) at cell densities ranging from 800-1500 cells/well. Half of the cell samples were seeded into plates that were pre-equilibrated and held in an anoxic environment (90% N2, 5% H2, 5% CO2, 37° C.; Anaerobic chamber, Coy Laboratory Products). […] At the end of this period the anoxic plates were recovered from the anaerobic camber and held under normoxia in a standard CO2 incubator (37° C.) for 20 hours. All plates were washed free of compound and cells were allowed to proliferate for a further 4 days in αMEM containing 5% FBS+antibiotics. Cells were fixed in trichloroacteic acid (30 min), washed and stained with sulforhodamine B (SRB, 60 min) prior to washing in acidified water. SRB was solubilised and absorption read at 450 nm to calculate cell densities. Inhibition of proliferation was calculated relative to untreated control wells."}, "H1975 cells": {"system": "H1975 cells", "assay": "Cellular growth inhibition (sulforhodamine B)", "type": "cell-based, Human", "conditions": "Table 9; for pIC50: Homo sapiens, NCI-H1975"}, "[3]": {"assay": "Plasma and A431 tumour pharmacokinetics of compounds 42 and 161"}, "[4]": {"assay": "Chemical stability by HPLC", "conditions": "HPLC after 24 h at 37° C."}, "[5]": {"conditions": "single ip dose of 20 at 133 umol/kg"}}, "note": "pIC50: −log10 of the molar value. Like-named read-outs stand apart in the source and are kept apart here.", "data": [{"molecule": "Cn1cnc([N+](=O)[O-])c1C[N+](C)(C)C/C=C/C(=O)Nc1ccc2ncnc(Nc3cccc(Br)c3)c2c1.[Br-]", "note": "[Compound 20, (2E)-4-{[4-(3-bromoanilino)-6-quinazolinyl]amino}-N,N-dimethyl-N-[(1-methyl-4-nitro-1H-imidazol-5-yl)methyl]-4-oxo-2-buten-1-ammonium bromide]", "values": [{"measurement": "stable tumour tissue concentration", "setting": "[1]; prodrug 20, out to 72 h", "value": "~30", "unit": "µmol/kg"}, {"measurement": "tumour AUC0-72h", "setting": "[1]; prodrug 20 at 133 umol/kg ip, A431 tumour", "value": 2245, "unit": "µmol·h/kg"}, {"measurement": "plasma AUC0-72h", "setting": "[1]; prodrug 20 dosed at 133 umol/kg ip", "value": 2016, "unit": "µM·h"}, {"measurement": "AUC0-72 hr A431 Tumour, Compound 20", "setting": "[1]; [5]", "value": 2245, "unit": "µM·h"}, {"measurement": "AUC0-72 hr Plasma, Compound 20", "setting": "[1]; [5]", "value": 2016, "unit": "µM·h"}, {"measurement": "efficacy by growth delay", "setting": "A431 xenografts; A431 xenografts, equitoxic dose (63% of single dose MTD), q4dx6, IP", "value": "superior efficacy to effector 11"}, {"measurement": "tumour growth inhibition (TGI)", "setting": "A431 xenografts; A431 xenografts, q4dx3 at MTD, IP in lactate buffer", "value": "> 210", "unit": "%"}, {"measurement": "deaths", "setting": "A431 xenografts; A431 xenografts, q4dx6, 63% of single dose MTD", "value": "0/12"}, {"measurement": "pIC50", "setting": "erbB1; read-out: cellular erbB1 autophosphorylation IC50, intact A431 cells", "value": 6.26}, {"measurement": "solubility", "setting": "Solubility by HPLC", "value": 1112, "unit": "µM"}, {"measurement": "efficacy by growth delay", "setting": "SKOV3 xenografts; 133 (20) and 56 (11) umol/kg/dose, q3dx6, IP", "value": "superior efficacy to effector 11"}, {"measurement": "deaths", "setting": "SKOV3 xenografts; q3dx6, 133 (20) and 56 (11) umol/kg/dose", "value": "0/7"}, {"measurement": "kfrag. (fragmentation rate constant upon 1-electron reduction)", "setting": "[2]", "value": "130 ± 10", "unit": "s⁻¹"}, {"measurement": "E (1)/V (one-electron reduction potential)", "setting": "[2]", "value": "−0.427", "unit": "V"}, {"measurement": "pIC50", "setting": "A431 cells; read-out: Cellular Growth Inhibition IC50 A431 Anoxic, Table 3, first 4 hours of 24 hour exposure anoxic", "value": 7.11}, {"measurement": "pIC50", "setting": "A431 cells; read-out: Cellular Growth Inhibition IC50 A431 Oxic, Table 3, 24 hour exposure entirely oxic", "value": 5.68}]}, {"molecule": "Cn1cnc([N+](=O)[O-])c1C[N+](C)(C)C/C=C/C(=O)Nc1cc2c(Nc3ccc(F)c(Br)c3)ncnc2cn1", "note": "[Compound 42, (2E)-4-{[4-(3-bromo-4-fluoroanilino)pyrido[3,4-d]pyrimidin-6-yl]amino}-N,N-dimethyl-N-[(1-methyl-4-nitro-1H-imidazol-5-yl)methyl]-4-oxo-2-buten-1-ammonium bromide]", "values": [{"measurement": "tumour growth inhibition (TGI)", "setting": "A431 xenografts; large A431 xenografts, 20 mg/kg/dose, q3dx8, IP", "value": 400, "unit": "%"}, {"measurement": "tumour growth inhibition (TGI)", "setting": "A431 xenografts; large A431 xenografts, 40 mg/kg/dose, q3dx8, IP", "value": 800, "unit": "%"}, {"measurement": "tumour growth inhibition (TGI)", "setting": "A431 xenografts; large A431 xenografts, 60 mg/kg/dose, q3dx8, IP", "value": 786, "unit": "%"}, {"measurement": "tumour growth inhibition (TGI)", "setting": "A431 xenografts; large A431 xenografts, 80 mg/kg/dose, q3dx8, IP", "value": 843, "unit": "%"}, {"measurement": "pIC50", "setting": "H1975 cells; 24 hour exposure oxic, read-out: Cellular Growth Inhibition IC50 H1975 Oxic", "value": 4.43}, {"measurement": "pIC50", "setting": "H1975 cells; first 4 hours anoxic, read-out: Cellular Growth Inhibition IC50 H1975 Anoxic", "value": 5.37}, {"measurement": "H1975 Deact.", "setting": "H1975 cells", "value": 30, "unit": "fold"}, {"measurement": "H1975 HCR", "setting": "H1975 cells", "value": 10.8, "unit": "fold"}, {"measurement": "pIC50", "setting": "erbB1", "value": 6.39}, {"measurement": "Deact. erbB1 (fold reduction in cellular inhibition relative to the parent kinase inhibitor)", "setting": "erbB1; Table 8, A431 cells", "value": 82, "unit": "fold"}, {"measurement": "efficacy by growth delay", "setting": "SKOV3 xenografts; 100 (42) and 31.6 (161) μmol/kg/dose, q3dx9, IP", "value": "superior efficacy to compound 161"}, {"measurement": "deaths", "setting": "SKOV3 xenografts; q3dx9, 100 (42) and 31.6 (161) μmol/kg/dose", "value": "0/7"}, {"measurement": "solubility", "setting": "physchem; aqueous buffer", "value": 129, "unit": "µM"}, {"measurement": "solubility", "setting": "physchem; water", "value": "> 1160", "unit": "µM"}, {"measurement": "stable tumour tissue concentration", "setting": "[3]; prodrug 42, out to 72 h", "value": "~30", "unit": "µmol/kg"}, {"measurement": "tumour AUC0-72h", "setting": "[3]; prodrug 42 at 100 umol/kg ip, A431 tumour", "value": 2821, "unit": "µmol·h/kg"}, {"measurement": "plasma AUC fold greater than for administration of inhibitor 161", "setting": "[3]; ~75% of q3dx4 MTD each", "value": "~27", "unit": "fold"}, {"measurement": "kfrag. (fragmentation rate constant upon 1-electron reduction)", "setting": "[2]", "value": "50 ± 10", "unit": "s⁻¹"}, {"measurement": "E (1)/V (one-electron reduction potential)", "setting": "[2]", "value": "−0.425±0.008", "unit": "V"}, {"measurement": "pIC50", "setting": "A431 cells; Homo sapiens, A-431, 4 h, read-out: Cellular Growth Inhibition IC50 A431 Anoxic", "value": 7.12}, {"measurement": "pIC50", "setting": "A431 cells; Homo sapiens, A-431, 24 h, read-out: Cellular Growth Inhibition IC50 A431 Oxic", "value": 5.77}, {"measurement": "A431 Deact.", "setting": "A431 cells; Table 9", "value": 56, "unit": "fold"}, {"measurement": "A431 HCR", "setting": "A431 cells; Table 9", "value": 60.0, "unit": "fold"}, {"measurement": "Stability PBS (percentage parent remaining)", "setting": "[4]", "value": 77, "unit": "%"}, {"measurement": "Stability Water (percentage parent remaining)", "setting": "[4]", "value": 98, "unit": "%"}, {"measurement": "Stability α-MEM + FCS (5%) (percentage parent remaining)", "setting": "[4]", "value": 61, "unit": "%"}]}]}
